Data from patent US20060079453A1, “Hla binding peptides and their uses” (priority 2002, published 2006).
Like-named read-outs stand apart in the source and are kept apart here. No end group written: not given here.

What was measured:
Experiment in all cases: biochemical
Assay type in all cases: binding
[1] = target: HLA-DR DRB1*1101 (DR11) (Homo sapiens, UniProt P01903+P01911, A100R/A169T/A87E/I96F/K41T/L162R/M171V/P40S/Q125H/Q178H/Q39Y/Q99D/R42S/S66Y/T262R/V115G/W38E)
[2] = target: HLA-DR DRB1*1302 (DR13) (Homo sapiens, UniProt P01903+P01911, A100E/A169T/K41T/L162R/M171V/P40S/Q125H/Q178H/Q39Y/Q99D/R42S/S66N/T262R/V115G/W38E/Y61H)
Sequence of HLA-DR DRB1*1302 (DR13) (P01903 26-254 limits assumed, other chains not shown): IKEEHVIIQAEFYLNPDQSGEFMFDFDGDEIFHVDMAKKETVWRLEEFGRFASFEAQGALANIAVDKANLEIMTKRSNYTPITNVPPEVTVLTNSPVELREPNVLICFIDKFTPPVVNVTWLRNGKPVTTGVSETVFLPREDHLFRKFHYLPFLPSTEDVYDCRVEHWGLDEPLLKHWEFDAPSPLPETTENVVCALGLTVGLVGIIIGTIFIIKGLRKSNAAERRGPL

[3] = target: HLA-DR DRB1*1501 (DR15) (Homo sapiens, UniProt P01903+P01911)
[4] = target: HLA-DR DRB4*0101 (DR53) (Homo sapiens, UniProt P01903+P13762, G164S)
[5] = target: HLA-DR DRB5*0101 (DR51) (Homo sapiens, UniProt P01903+Q30154)
[6] = target: HLA-DR DRB1*0101 (DR1) (Homo sapiens, UniProt P01903+P01911, A100R/D57E/F55L/F60I/F76Y/I96L/L162R/M171V/P40L/Q125E/R42F/V115G/Y59C)
[7] = target: HLA-DR DRB1*0301 (DR3) (Homo sapiens, UniProt P01903+P01911, A100K/A102G/A103R/A169T/F55Y/I96L/K41T/L162R/M171V/P40S/Q125H/Q178H/Q39Y/R42S/S66N/T106N/T262R/W38E/Y61H)
Sequence of HLA-DR DRB1*0301 (DR3) (P01903 26-254 limits assumed, other chains not shown): as above

[8] = target: HLA-DR DRB1*0701 (DR7) (Homo sapiens, UniProt P01903+P01911, A100R/A102G/A103Q/D57E/D86V/E43K/F76Y/K127E/L162R/M171V/P40G/Q125H/Q99D/R33Q/R42Y/R54Q/S133A/S66F/T210M/V115G/Y107V/Y59L/Y89S)
[9] = target: HLA-DR DRB1*0401 (DR4) (Homo sapiens, UniProt P01903+P01911, A100K/A169T/F76Y/I96L/K127E/L162R/M171V/N62H/P40V/Q125Y/R42H/S133A/S149N/S66Y/V115G/V209L/W38E)

Sequence of HLA-DR DRB1*1101 (DR11) (P01903 26-254 limits assumed, other chains not shown): as above

Question: Which results are given for LSHFLKEKGGLEGLI?
Answer: IC50 ([1]; read-out: DRB1 *1101): 9.46 µM; IC50 ([2]; read-out: DRBI *1302): > 12000 nM; IC50 ([3]; read-out: DRBI *1501): > 39.7 µM; IC50 ([4]; read-out: DRB4 *0101): 18700 nM; IC50 ([5]; read-out: DRB5 *0101): > 20.5 µM

Question: For YDFVFADLRIVYRDG, which IC50 ([1]; read-out: DRB1 *1101) is on record?
Answer: 6.54 µM

Question: And the IC50 ([2]; read-out: DRBI *1302)?
Answer: 8170 nM

Question: And the IC50 ([3]; read-out: DRBI *1501)?
Answer: 25.7 µM

Question: Which IC50 ([1]; read-out: DRB1 *1101) does the source give for VASLLTTAEVVVTEI here?
Answer: > 18.7 µM

Question: What about the IC50 ([2]; read-out: DRBI *1302) of the same substance?
Answer: > 10300 nM

Question: What about the IC50 ([3]; read-out: DRBI *1501) of the same substance?
Answer: > 50.8 µM

Question: And the IC50 ([4]; read-out: DRB4 *0101)?
Answer: > 26400 nM

Question: What about the IC50 ([5]; read-out: DRB5 *0101) of the same substance?
Answer: > 119 µM

Question: TGYKVLVLNPSV was tested. Which IC50 ([1]; read-out: DRB1 *1101) did it give?
Answer: 0.026 µM

Question: And the IC50 ([2]; read-out: DRBI *1302)?
Answer: 21 nM

Question: And the IC50 ([5]; read-out: DRB5 *0101)?
Answer: > 11.4 µM

Question: How did the IC50 ([6]; DRB1 *0101) turn out when YSYFPSIR was run?
Answer: ≥ 50000 nM

Question: And the IC50 [7]?
Answer: > 900 µM

Question: What about the IC50 ([8]; DRB1 *0701) of the same substance?
Answer: 7.22 µM

Question: What about the IC50 ([1]; DRB1 *1101) of the same substance?
Answer: 20 µM

Question: And the IC50 ([5]; DRB5 *0101)?
Answer: > 200 µM

Question: With LRTIQQLLMGTVNIV as the substance, how does the IC50 ([6]; DRB1 *0101) read?
Answer: 13 nM

Question: What about the IC50 [7] of the same substance?
Answer: 23.2 µM

Question: What about the IC50 ([9]; DRB1 *0401) of the same substance?
Answer: 108 nM

Question: And the IC50 ([8]; DRB1 *0701)?
Answer: 0.513 µM

Question: And the IC50 ([2]; DRBI *1302)?
Answer: 6.4 nM

Question: And the IC50 ([3]; DRBI *1501)?
Answer: 0.265 µM

Question: And the IC50 ([4]; DRB4 *0101)?
Answer: 15 nM

Question: And the IC50 ([5]; DRB5 *0101)?
Answer: 32.1 µM

Question: How did the IC50 [9] turn out when EYLILSARDVLAVVS was run?
Answer: 508 nM

Question: And the IC50 [1]?
Answer: 6.86 µM

Question: And the IC50 [3]?
Answer: 2.34 µM

Question: What about the IC50 ([4]; DRB4 *0101) of the same substance?
Answer: 2530 nM

Question: And the IC50 [5]?
Answer: 4.15 µM

Question: How did the IC50 ([9]; read-out: DRB1 *0401) turn out when (16A)RQTTLKAAA was run?
Answer: 1.3 nM

Question: And the IC50 ([1]; read-out: DRB1 *1101)?
Answer: 0.077 µM

Question: What about the IC50 ([5]; read-out: DRB5 *0101) of the same substance?
Answer: 4 µM

Question: Which results are given for KVSCKGSGYTFTAYQMH?
Answer: IC50 ([6]; DRB1 *0101): 5000 nM; IC50 ([8]; DRB1 *0701): 50 µM; IC50 ([1]; DRB1 *1101): > 200 µM

Question: With Ac-NPTKHKWEAAHVAEQLAA as the substance, how does the IC50 ([1]; DRB1 *1101) read?
Answer: > 33.3 µM

Question: And the IC50 ([2]; DRBI *1302)?
Answer: > 10000 nM

Question: What about the IC50 ([3]; DRBI *1501) of the same substance?
Answer: 200 µM

Question: How did the IC50 ([6]; DRB1 *0101) turn out when ENEYATGAVRPFQAA was run?
Answer: 4440 nM

Question: And the IC50 ([9]; DRB1 *0401)?
Answer: 281 nM

Question: What about the IC50 ([8]; DRB1 *0701) of the same substance?
Answer: 4.97 µM

Question: What about the IC50 ([2]; DRBI *1302) of the same substance?
Answer: 9300 nM

Question: And the IC50 ([3]; DRBI *1501)?
Answer: 3.01 µM

Question: And the IC50 ([4]; DRB4 *0101)?
Answer: 10000 nM

Question: What about the IC50 ([5]; DRB5 *0101) of the same substance?
Answer: > 10.3 µM

Question: Which IC50 ([6]; DRB1 *0101) does the source give for QKKYIYNLIMNTQNK here?
Answer: 73 nM

Question: What about the IC50 ([9]; DRB1 *0401) of the same substance?
Answer: 24 nM

Question: And the IC50 ([8]; DRB1 *0701)?
Answer: 11.9 µM

Question: And the IC50 ([2]; DRBI *1302)?
Answer: 53 nM

Question: What about the IC50 ([3]; DRBI *1501) of the same substance?
Answer: 0.844 µM

Question: What about the IC50 ([4]; DRB4 *0101) of the same substance?
Answer: 87 nM

Question: What does the source list for LCNFKKNIIALLHP?
Answer: IC50 ([2]; read-out: DRBI *1302): 16 nM; IC50 ([3]; read-out: DRBI *1501): 29.3 µM; IC50 ([4]; read-out: DRB4 *0101): 99 nM; IC50 ([5]; read-out: DRB5 *0101): > 42.6 µM

Question: KKPLNEILIRCHCQ was tested. Which IC50 ([1]; read-out: DRB1 *1101) did it give?
Answer: 1.3 µM

Question: And the IC50 ([2]; read-out: DRBI *1302)?
Answer: 965 nM

Question: And the IC50 ([4]; read-out: DRB4 *0101)?
Answer: 140 nM

Question: Which results are given for YAR(15)ASQTTLKAKT?
Answer: IC50 ([6]; read-out: DRB1 *0101): 1.5 nM; IC50 ([9]; read-out: DRB1 *0401): 0.46 nM; IC50 ([8]; read-out: DRB1 *0701): 1.2 µM; IC50 ([1]; read-out: DRB1 *1101): 0.0039 µM; IC50 ([5]; read-out: DRB5 *0101): 0.0036 µM

Question: How did the IC50 ([6]; DRB1 *0101) turn out when YKSAHKGFKGVDAQGTLSKI was run?
Answer: 70 nM

Question: What about the IC50 [7] of the same substance?
Answer: > 900 µM

Question: What about the IC50 ([8]; DRB1 *0701) of the same substance?
Answer: 0.108 µM

Question: And the IC50 ([1]; DRB1 *1101)?
Answer: 2 µM

Question: And the IC50 ([5]; DRB5 *0101)?
Answer: 1.33 µM
